Our source for the MIC values is patent US20110071155A1, “Tricyclic Nitrogen Containing Compounds And Their Use As Antibacterials” (priority 2008, published 2011).

Converted amounts (≈) assume the structure as drawn.

Assay [1] concerns Mycobacterium tuberculosis H37Rv. Description: Mycobacterium tuberculosis H37Rv Inhibition Assay (resazurin MIC). The format is cell-based. The conditions noted are these: ATCC 25618 / H37Rv, H37Rv strain (ATCC25618), Middlebrook 7H9+ADC, six days at 37° C., resazurin fluorescence after 48 hours, read-out: MtB MIC. For orientation: Alamar Blue is a resazurin reagent that responds to reducing activity.

The nature of assay [2]: Antimicrobial Activity Assay: whole-cell broth microdilution (CLSI M7-A7). The format is cell-based, Gram-positive and Gram-negative organisms. The conditions noted are these: at least one of S. aureus, S. pneumoniae, E. faecalis, H. influenzae, M. catarrhalis, E. coli, read-out: MIC against at least one of the organisms listed. The protocol:
Antimicrobial Activity Assay: Whole-cell antimicrobial activity was determined by broth microdilution using the Clinical Laboratory Standards Institute (CLSI) recommended procedure, Document M7-A7, “Methods for Dilution Susceptibility Tests for Bacteria that Grow Aerobically”. Compounds were evaluated against Gram-positive organisms, including Staphylococcus aureus, Streptococcus pneumoniae, and Enterococcus faecalis. In addition, compounds were evaluated against Gram-negative organisms including Haemophilus influenzae, Moraxella catarrhalis, and Escherichia coli. The minimum inhibitory concentration (MIC) was determined as the lowest concentration of compound that inhibited visible growth. A mirror reader was used to assist in determining the MIC endpoint.
(Dilution methods test growth across graded concentrations, often in twofold steps.)

`O=c1ccc2ccc(=O)n3c2n1C[C@H]3CN1CCC(NC/C=C/c2cc(F)ccc2F)CC1` [Example 1, (1R)-1-[(4-{[(2E)-3-(2,5-difluorophenyl)-2-propen-1-yl]amino}-1-piperidinyl)methyl]-1,2-dihydro-4H,9H-imidazo[1,2,3-ij]-1,8-naphthyridine-4,9-dione]: the MIC in assay [1] is 0.071 µg/mL (≈ 0.157 µM); in assay [2] it was below 2 µg/mL. For `O=c1ccc2ncc(=O)n3c2n1CC3CN1CCC(NC/C=C/c2cccc(F)c2)CC1` (stereo not drawn) [Example 2, 2-[(4-{[(2E)-3-(3-fluorophenyl)-2-propen-1-yl]amino}-1-piperidinyl)methyl]-1,2-dihydro-3H,8H-2a,5,8a-triazaacenaphthylene-3,8-dione] the same measures were 0.102 µg/mL (≈ 0.234 µM) and below 2 µg/mL.

Consider `O=c1ccc2ncc(=O)n3c2n1CC3CN1CCC(NCCCc2cccc(F)c2)CC1` (stereo not drawn) [Example 3, 2-[(4-{[3-(3-fluorophenyl)propyl]amino}-1-piperidinyl)methyl]-1,2-dihydro-3H,8H-2a,5,8a-triazaacenaphthylene-3,8-dione], for which the results for the MIC in assay [1] and in assay [2] were 0.82 µg/mL (≈ 1.87 µM) and below 2 µg/mL, respectively.

For the compound `O=c1ccc2ccc(=O)n3c2n1C[C@H]3CN1CCC(NC/C=C/c2cncc(F)c2)CC1` [Example 4, (1R)-1-[(4-{[(2E)-3-(5-fluoro-3-pyridinyl)-2-propen-1-yl]amino}-1-piperidinyl)methyl]-1,2-dihydro-4H,9H-imidazo[1,2,3-ij]-1,8-naphthyridine-4,9-dione], the MIC in assay [1] is 0.544 µg/mL (≈ 1.25 µM); in assay [2] it was below 2 µg/mL. Regarding `O=c1ccc2ncc(=O)n3c2n1CC3CN1CCC(NC/C=C/c2cncc(F)c2)CC1` (stereo not drawn) [Example 5, 2-[(4-{[(2E)-3-(5-fluoro-3-pyridinyl)-2-propen-1-yl]amino}-1-piperidinyl)methyl]-1,2-dihydro-3H,8H-2a,5,8a-triazaacenaphthylene-3,8-dione], the MIC in assay [1] worked out at 0.273 µg/mL (≈ 0.625 µM). As for `O=c1ccc2ncc(=O)n3c2n1CC3CN1CCC(NCCOc2cccc(F)c2)CC1` (stereo not drawn) [Example 6, 2-{[4-({2-[(3-fluorophenyl)oxy]ethyl}amino)-1-piperidinyl]methyl}-1,2-dihydro-3H,8H-2a,5,8a-triazaacenaphthylene-3,8-dione], the MIC in assay [1] was 0.824 µg/mL (≈ 1.87 µM); in assay [2], below 2 µg/mL. On to `O=c1ccc2ncc(=O)n3c2n1CC3CN1CCC(NCCNc2cccc(F)c2)CC1` (stereo not drawn) [Example 7, 2-{[4-({2-[(3-Fluorophenyl)amino]ethyl}amino)-1-piperidinyl]methyl}-1,2-dihydro-3H,8H-2a,5,8a-triazaacenaphthylene-3,8-dione], for which the MIC in assay [1] was determined as 0.071 µg/mL (≈ 0.162 µM).
